Values quoted from earlier work, collected in patent US7286970B2, “Computational model, method, and system for kinetically-tailoring multi-drug chemotherapy for individuals” (The Regents of the University of California, priority 2002, dated 2007).
Marks after values point to notes of the source that are not given here.

Conditions: for Plasma Half-life: in vivo

Compound: O=c1[nH]cc(F)c(=O)[nH]1 [5-Fluorouracil, 5-fluorouracil]
- half-life: about 15 min

Compound: CN(Cc1cnc2nc(N)nc(N)c2n1)c1ccc(C(=O)N[C@@H](CCC(=O)O)C(=O)O)cc1 [Methotrexate, methotrexate]
- Plasma Half-life: 8^d h

Compound: COc1cccc2c1C(=O)c1c(O)c3c(c(O)c1C2=O)C[C@@](O)(C(=O)CO)C[C@@H]3O[C@H]1C[C@H](N)[C@H](O)[C@H](C)O1 [Doxorubicin, doxorubicin]
- Plasma Half-life: 25^d h

Compound: CC/C(=C(\c1ccccc1)c1ccc(OCCN(C)C)cc1)c1ccccc1 [Tamoxifen, tamoxifen]
- Plasma Half-life: 10^e h

Compound: O=P1(N(CCCl)CCCl)NCCCO1 (centres unmarked) [Cyclophosphamide, cyclophosphamide]
- Plasma Half-life: 4^d h
